# Laboratory results taken from patent publication US6596719B1 (Actelio Pharmaceuticals Ltd., priority 1999, dated 2003).
# Where two headings read alike, the source gives them in different places.
# Legend:
# [1] = biological target: T1, human recombinant ETA receptors (Homo sapiens, UniProt P25101); assay: Inhibition of endothelin binding to membranes from CHO cells carrying human ET receptors (ETA)
# T1 construct: expressed in transfected cells; host or cells: CHO cells (microsomal membranes)
# T1 sequence (P25101 21-427): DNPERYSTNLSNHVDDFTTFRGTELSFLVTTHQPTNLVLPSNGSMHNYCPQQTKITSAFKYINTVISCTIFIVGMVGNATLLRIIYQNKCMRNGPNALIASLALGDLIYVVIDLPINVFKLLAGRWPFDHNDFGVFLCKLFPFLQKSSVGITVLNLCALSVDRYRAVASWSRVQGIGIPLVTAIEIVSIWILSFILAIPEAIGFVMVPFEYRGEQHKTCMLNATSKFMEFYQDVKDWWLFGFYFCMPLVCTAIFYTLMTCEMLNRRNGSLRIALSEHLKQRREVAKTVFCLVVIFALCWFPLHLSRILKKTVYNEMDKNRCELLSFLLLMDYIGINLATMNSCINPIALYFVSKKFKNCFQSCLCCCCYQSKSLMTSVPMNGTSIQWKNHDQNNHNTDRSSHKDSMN
# ETB receptors = biological target: T2, ETB receptors (Rattus norvegicus, UniProt P21451); assay: Inhibition of sarafotoxin S6c-induced contractions on isolated rat tracheal rings; details: for pA2 value ETB: rat tracheal rings, contraction induced by sarafotoxin S6c, 10 min incubation
# T2 sequence (P21451 27-442): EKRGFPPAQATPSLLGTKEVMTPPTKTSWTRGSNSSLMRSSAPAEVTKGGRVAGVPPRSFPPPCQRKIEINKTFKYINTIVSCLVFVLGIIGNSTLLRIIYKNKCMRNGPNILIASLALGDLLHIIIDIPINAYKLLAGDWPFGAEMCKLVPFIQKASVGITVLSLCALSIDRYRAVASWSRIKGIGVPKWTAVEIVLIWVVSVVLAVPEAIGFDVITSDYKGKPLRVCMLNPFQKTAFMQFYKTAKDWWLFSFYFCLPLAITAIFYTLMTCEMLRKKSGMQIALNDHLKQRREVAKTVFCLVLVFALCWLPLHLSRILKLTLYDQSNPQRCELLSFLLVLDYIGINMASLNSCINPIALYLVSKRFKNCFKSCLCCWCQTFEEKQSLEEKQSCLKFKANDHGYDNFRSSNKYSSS
# [2] = biological target: T3, human recombinant ETB receptors (Homo sapiens, UniProt P24530); assay: Inhibition of endothelin binding to membranes from CHO cells carrying human ET receptors (ETB)
# T3 construct: expressed in transfected cells; host or cells: CHO cells (microsomal membranes)
# T3 sequence (P24530 27-442): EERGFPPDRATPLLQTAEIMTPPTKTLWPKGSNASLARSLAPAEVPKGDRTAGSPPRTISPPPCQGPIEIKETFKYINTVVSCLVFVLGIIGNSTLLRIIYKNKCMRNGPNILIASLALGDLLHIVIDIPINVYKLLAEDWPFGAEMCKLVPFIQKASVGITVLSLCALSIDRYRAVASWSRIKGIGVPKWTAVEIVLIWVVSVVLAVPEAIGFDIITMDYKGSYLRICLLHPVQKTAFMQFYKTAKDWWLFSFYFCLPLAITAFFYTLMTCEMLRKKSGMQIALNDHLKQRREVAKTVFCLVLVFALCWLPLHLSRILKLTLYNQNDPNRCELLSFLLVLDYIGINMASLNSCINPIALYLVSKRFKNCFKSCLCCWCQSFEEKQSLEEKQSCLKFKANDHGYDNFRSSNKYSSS
# ETA receptors = biological target: T4, ETA receptors (Rattus norvegicus, UniProt P26684); assay: Inhibition of endothelin-1-induced contractions on isolated rat aortic rings; details: for pA2 value ETA: rat aortic rings, contraction induced by endothelin-1, 10 min incubation
# T4 sequence (P26684 21-426): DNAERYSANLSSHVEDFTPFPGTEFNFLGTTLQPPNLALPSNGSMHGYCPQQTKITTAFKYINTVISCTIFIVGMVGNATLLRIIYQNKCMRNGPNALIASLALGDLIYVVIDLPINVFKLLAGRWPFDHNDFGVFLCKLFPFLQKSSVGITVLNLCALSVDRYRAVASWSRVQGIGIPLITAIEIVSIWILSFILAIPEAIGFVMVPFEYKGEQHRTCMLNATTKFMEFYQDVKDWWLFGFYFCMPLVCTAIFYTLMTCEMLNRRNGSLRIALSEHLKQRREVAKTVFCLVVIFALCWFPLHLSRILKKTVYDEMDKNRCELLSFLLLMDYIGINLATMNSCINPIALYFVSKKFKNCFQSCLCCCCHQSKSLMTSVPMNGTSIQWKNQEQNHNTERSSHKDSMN
SMILES,"IC50 ([1]; membranes of CHO cells expressing human recombinant ETA receptors, 8 pM [125I]ET-1, 2 h at 20° C.)",Kb (ETB receptors),IC50 [2],Kb (ETA receptors),IC50 [1],pA2 value ETB (ETB receptors),pA2 value ETA (ETA receptors)
"CCCS(=O)(=O)NCCOc1nc(-c2cc(OC)c(OC)c(OC)c2)nc(NS(=O)(=O)c2ccc(C(C)C)cn2)c1Oc1ccccc1OC [Example 16, 5-i.-propyl-N-[6-(ethoxy-2-(1-propanesulfonamido))-5-(o-methoxyphenoxy)-2-(3,4,5-trimethoxyphenyl)-4-pyrimidinyl]pyridine-2-sulfonamide]",261 nM,34.7 nM,24.5 nM,> 3160 nM,–,–,–
"CCCS(=O)(=O)NCCOc1nc(N2CCOCC2)nc(NS(=O)(=O)c2ccc(C)cn2)c1Oc1ccccc1OC [Example 59, 5-methyl-N-[6-(2-(1-propanesulfonylamino)-ethoxy)-5-(o-methoxyphenoxy)-2-(N-morpholino)-4-pyrimidinyl]-2-pyridine sulfonamide]",–,–,189 nM,–,103 nM,5.58,6.61
"CCS(=O)(=O)NCCOc1nc(N2CCOCC2)nc(NS(=O)(=O)c2ccc(C(C)C)cn2)c1Oc1ccccc1OC [Example 61, 5-isopropyl-N-[6-(2-(ethanesulfonylamino)-ethoxy)-5-(o-methoxyphenoxy)-2-(N-morpholino)-4-pyrimidinyl]-2-pyridine sulfonamide]",–,–,183 nM,–,92 nM,6.36,7.02
